# Assay results taken from patent US9340579B2, “DPP-4 inhibitor” (NIPPI, INCORPORATED, priority 2011, dated 2016).
# Like-named read-outs stand apart in the source and are kept apart here. Square brackets hold non-standard residues; d marks the D form. Ends that are not written are not given here. Peptide text beside a SMILES is read from it. Hyp = O=C(O)[C@@H]1C[C@@H](O)CN1
# Key:
# [1] = biological target: T1, DPP-4 (manufactured by Sigma, derived from porcine kidney) (Sus scrofa, UniProt P22411); assay: DPP-4 inhibition rate and IC50 measurement, fluorescence of AMC freed from Gly-Pro-MCA; format: biochemical; conditions: for inhibition at 350 µg/mL / Inhibition rate (%) at 0.35 mg/ml time: sample 0.35 mg/ml, substrate Gly-Pro-MCA, pH 7.5, 37° C.; for inhibition at 350 µg/mL: read-out: Inhibition rate (%) at 0.35 mg/ml time
# T1 construct: derived from porcine kidney; purchased Sigma; host or cells: porcine kidney (tissue-derived)
# T1 sequence (P22411 whole entry): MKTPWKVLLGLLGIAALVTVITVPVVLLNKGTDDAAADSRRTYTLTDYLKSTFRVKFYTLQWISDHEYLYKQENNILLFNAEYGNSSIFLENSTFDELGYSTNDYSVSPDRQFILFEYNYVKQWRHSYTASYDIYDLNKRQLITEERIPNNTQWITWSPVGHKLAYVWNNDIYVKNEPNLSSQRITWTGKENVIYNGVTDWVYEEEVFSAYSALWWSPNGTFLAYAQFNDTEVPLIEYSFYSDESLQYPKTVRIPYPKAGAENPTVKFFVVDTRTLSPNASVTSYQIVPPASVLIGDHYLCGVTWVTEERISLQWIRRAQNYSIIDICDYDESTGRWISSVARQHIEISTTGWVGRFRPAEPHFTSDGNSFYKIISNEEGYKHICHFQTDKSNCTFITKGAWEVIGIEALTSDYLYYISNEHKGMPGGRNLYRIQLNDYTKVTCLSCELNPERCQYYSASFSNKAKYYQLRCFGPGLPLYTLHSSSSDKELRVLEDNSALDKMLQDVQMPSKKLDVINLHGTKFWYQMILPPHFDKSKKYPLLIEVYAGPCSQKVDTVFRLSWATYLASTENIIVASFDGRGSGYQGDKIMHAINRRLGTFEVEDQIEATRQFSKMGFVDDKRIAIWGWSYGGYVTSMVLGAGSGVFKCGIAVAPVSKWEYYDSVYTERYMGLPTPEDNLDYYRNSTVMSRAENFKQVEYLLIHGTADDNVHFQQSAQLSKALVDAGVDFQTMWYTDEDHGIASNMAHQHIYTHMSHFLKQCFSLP
# Method: A sample liquid 35 μl obtained by dissolving a sample 1 mg in 50 mM tris-hydrochloric acid buffer (pH 7.5) 1 ml and DPP-4 (manufactured by Sigma, derived from porcine kidney; 8.6 mU/ml) 15 μl that had been dissolved in 50 mM tris-hydrochloric acid buffer (pH 7.5) were mixed in a microtiter plate well (manufactured by NUNC, trade name “237015”) and incubated at 37° C. for 10 minutes.
# Thereto, 50 μl of a substrate solution (one obtained by dissolving glycyl-Pro-4-methylcoumarin-7-amide (Gly-Pro-MCA) in 50 mM tris-hydrochloric acid buffer (pH 7.5) so as to be 10 μM) that had in advance heated to and kept at 37° C. was added, mixed, and allowed to react at 37° C. for 20 minutes.
# The fluorescence intensity of 7-amino-4-methylcoumarin (AMC) that was freed by DPP-4 was measured with time by a microplate reader type fluorescence detector (manufactured by Corona Electric Co., Ltd., trade name “SH-9000”). Note that the measurement wavelength was an excitation wavelength of 380 nm and a measurement wavelength of 460 nm. Note that one obtained by using the same amount of 50 mM tris-hydrochloric acid buffer (pH 7.5) in replace of the sample was used as a control; and the fluorescence intensity thereof was measured.
# The activity of DPP-4 was expressed by an average gradient of change in the amount of the fluorescence intensity during the reaction time; and, as for DPP-4 inhibition rate, difference obtained by, with the control as 100%, subtracting the activity of the sample from the above-mentioned control was calculated as an inhibition rate (%).
# In accordance with the above method of measuring a DPP-4 inhibition rate, sample concentration was changed between 0.001 and 7.2 μmol/ml to obtain the inhibition rate, thereby calculating the 50% inhibitory concentration (IC50 value) of the activity of DPP-4.
# [2] = biological target: DPP-4 (manufactured by Sigma, derived from porcine kidney) (porcine, UniProt P22411 38-766, limits assumed); assay: cell-based or functional assay
# Sequence of DPP-4 (manufactured by Sigma, derived from porcine kidney) (porcine, UniProt P22411 38-766, limits assumed) (P22411 38-766 limits assumed): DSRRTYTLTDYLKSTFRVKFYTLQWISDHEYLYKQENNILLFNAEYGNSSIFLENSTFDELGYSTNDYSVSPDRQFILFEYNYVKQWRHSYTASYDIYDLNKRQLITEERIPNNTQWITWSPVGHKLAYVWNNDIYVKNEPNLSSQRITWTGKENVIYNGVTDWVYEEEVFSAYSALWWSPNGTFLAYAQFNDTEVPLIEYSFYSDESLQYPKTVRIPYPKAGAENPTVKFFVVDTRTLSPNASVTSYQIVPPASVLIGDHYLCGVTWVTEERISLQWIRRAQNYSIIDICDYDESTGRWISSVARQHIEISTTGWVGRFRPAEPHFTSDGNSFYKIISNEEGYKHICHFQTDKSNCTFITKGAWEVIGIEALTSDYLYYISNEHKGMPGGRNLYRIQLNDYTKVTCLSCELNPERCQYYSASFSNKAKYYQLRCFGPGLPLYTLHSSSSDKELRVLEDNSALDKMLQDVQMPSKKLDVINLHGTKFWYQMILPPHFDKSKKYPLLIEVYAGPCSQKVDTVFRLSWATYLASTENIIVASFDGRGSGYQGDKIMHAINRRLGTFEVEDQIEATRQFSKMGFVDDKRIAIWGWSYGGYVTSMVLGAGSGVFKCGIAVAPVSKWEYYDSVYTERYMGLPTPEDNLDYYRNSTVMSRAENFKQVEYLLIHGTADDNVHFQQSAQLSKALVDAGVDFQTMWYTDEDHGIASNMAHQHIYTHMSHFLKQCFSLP
# [3] = Table 1, sample concentration changed between 0.001 and 7.2 μmol/ml, read-out: IC50 value
# [4] = Table 2, sample concentration changed between 0.001 and 7.2 μmol/ml, read-out: IC50 value
# [5] = Table 1, sample concentration changed between 0.001 and 7.2 μmol/ml
molecule,measurement,setting,value
"GPAGPR [Example 2, Gly-Pro-Ala-Gly-Pro-Arg]",IC50,[1]; [3],80 µM
"GAVGPA [Example 14, Gly-Ala-Val-Gly-Pro-Ala]",inhibition at 350 µg/mL,[1]; Table 1,63.7%
same,IC50,[1]; [3],437 µM
"GAIGPA [Example 12, Gly-Ala-Ile-Gly-Pro-Ala]",inhibition at 350 µg/mL,[1]; Table 1,71.5%
same,IC50,[1]; [3],285 µM
"H-GPAGP-OH [Example 1, Gly-Pro-Ala-Gly-Pro]",inhibition at 350 µg/mL,[1]; Table 1,95.8%
same,IC50,[1]; [3],60 µM
"GAIGPS [Example 13, Gly-Ala-Ile-Gly-Pro-Ser]",inhibition at 350 µg/mL,[1]; Table 1,70.4%
same,IC50,[1]; [3],314 µM
"O=C(O)CNC(=O)[C@@H]1C[C@@H](O)CN1C(=O)[C@@H]1CCCN1 [Example 24, Pro-Hyp-Gly] (H-Pro-[Hyp]-Gly-OH; N-terminus and C-terminus assumed)",inhibition at 350 µg/mL,[1]; Table 2,27.2%
same,IC50,[1]; [4],4640 µM
"CC(C)C[C@H](N)C(=O)N1C[C@H](O)C[C@H]1C(=O)NCC(=O)N1CCC[C@H]1C(=O)N[C@@H](C)C(=O)O [Example 23, Leu-Hyp-Gly-Pro-Ala] (H-L[Hyp]GPA-OH)",inhibition at 350 µg/mL,[1]; Table 2,52.1%
same,IC50,[1]; [4],830 µM
"LPGPA [Example 18, Leu-Pro-Gly-Pro-Ala]",inhibition at 350 µg/mL,[1]; Table 2,94.9%
same,IC50,[1]; [4],63 µM
"CC(C)C[C@H](N)C(=O)N1C[C@H](O)C[C@H]1C(=O)O [Example 20, Leu-Hyp] (H-Leu-[Hyp]-OH)",inhibition at 350 µg/mL,[1]; Table 2,48.6%
"GPIGPV [Example 6, Gly-Pro-Ile-Gly-Pro-Val]",IC50,[1],9.3 µM
"C[C@H](NC(=O)[C@@H]1CCCN1C(=O)CN)C(=O)NCC(=O)N1CCC[C@H]1C(=O)N1C[C@H](O)C[C@H]1C(=O)O [Example 3, Gly-Pro-Ala-Gly-Pro-Hyp] (H-GPAGP[Hyp]-OH; N-terminus and C-terminus assumed)",IC50,[1]; [3],70 µM
"C[C@H](NC(=O)CN)C(=O)O [Example 11, Gly-Ala] (H-Gly-Ala-OH; N-terminus and C-terminus assumed)",inhibition at 350 µg/mL,[1]; Table 1,42.5%
same,IC50,[1]; [3],3340 µM
"CC(C)C[C@H](N)C(=O)N1CCC[C@H]1C(=O)O [Example 16, Leu-Pro] (H-Leu-Pro-OH; N-terminus and C-terminus assumed)",inhibition at 350 µg/mL,[1]; Table 2,92.1%
same,IC50,[1]; [4],110 µM
"GPAGPI [Example 4, Gly-Pro-Ala-Gly-Pro-Ile]",IC50,[1]; [3],50 µM
"GAVGP [Example 15, Gly-Ala-Val-Gly-Pro]",inhibition at 350 µg/mL,[1]; Table 1,40.9%
same,IC50,[1]; [3],1200 µM
"GPLGPV [Example 5, Gly-Pro-Leu-Gly-Pro-Val]",IC50,[1]; [3],24 µM
"Gly-Ala-Hyp (Gly-Ala-[Hyp]) [compound 2, reference compound]",Inhibition rate (%) at 0.35 mg/ml time,[1]; Table 1,0%
same,IC50 value,[1]; [5],No inhibitory
"Gly-Pro-Hyp (Gly-Pro-[Hyp]) [Comparative Example 1, reference compound]",Inhibition rate (%) at 0.35 mg/ml time,[1]; Table 1,0%
same,IC50 value,[1]; [5],No inhibitory
"CC(C)C[C@H](N)C(=O)N1C[C@H](O)C[C@H]1C(=O)NCC(=O)O [Example 21, Leu-Hyp-Gly] (H-Leu-[Hyp]-Gly-OH)",inhibition at 350 µg/mL,[1]; Table 2,89.3%
same,IC50,[1]; [4],130 µM
"C[C@H](NC(=O)[C@@H]1CCCN1C(=O)CN)C(=O)NCC(=O)O [Example 9, Gly-Pro-Ala-Gly] (H-GPAG-OH; N-terminus and C-terminus assumed)",IC50,[1]; [3],150 µM
"CC[C@H](C)[C@H](N)C(=O)N1C[C@H](O)C[C@H]1C(=O)NCC(=O)O [Example 22, Ile-Hyp-Gly] (H-Ile-[Hyp]-Gly-OH; N-terminus and C-terminus assumed)",inhibition at 350 µg/mL,[1]; Table 2,71%
same,IC50,[1]; [4],500 µM
"C[C@H](N)C(=O)N1C[C@H](O)C[C@H]1C(=O)NCC(=O)O [Example 25, Ala-Hyp-Gly] (H-Ala-[Hyp]-Gly-OH; N-terminus and C-terminus assumed)",inhibition at 350 µg/mL,[1]; Table 2,14.6%
same,IC50,[1]; [4],9450 µM
GPV [Gly-Pro-Val],IC50 value,[2],370 µM
same,Inhibition rate (%) at 0.35 mg/ml time,[2],76.5%
GPAG [Gly-Pro-Ala-Gly],IC50 value,[2],150 µM
